Test results from US8017727B2, “Conjugates of membrane translocating agents and pharmaceutically active agents” (Merrion Research III Limited, priority 1999, dated 2011).
Where two headings read alike, the source gives them in different places. Non-standard residues stand in square brackets, D forms with d. Residues, ends and D or L forms follow the SMILES beside them.

Assays:
[1] = Stability of MTLPs in simulated intestinal fluid pH 6.8 with pancreatin (HPLC recovery)
Experimental: MTLPs ZElan094 and ZElan207 (SEQ. ID NO: 2 and 60) were dissolved in water and mixed with simulated intestinal fluid pH 6.8 containing porcine derived pancreatin (SIF+Pancreatin) at 37° C. The mixtures were incubated for up to 60 minutes at 37° C., with aliquots taken at designated time points. The reaction was quenched with quenching solution after the relevant time points in order to halt the reaction between the SIF and ligand.
Approximately 1 mg of ligand was dissolved in 1 ml of water. This standard stock solution of ligand was used to prepare the solutions containing Ligand+SIF+Pancreatin. 50 μL of ligand solution was mixed with volumes of SIF+Pancreatin in separate eppendorfs, as follows:
At the appropriate time point the reaction between the ligand and SIF was stopped by pipetting 100 μL of the mixture into 500 μL of quenching solution (Acetonitrile:Water 30:70). 20 μL of the mixture was injected onto the HPLC system.
Control samples of ligand in water and in quenching solution were prepared to check for recovery of ligand in the absence of SIF+Pancreatin.

[2] = system: Caco-2 monolayers; experiment: Transport of dipeptide 14C-gly-sar across Caco-2 monolayers; type: cell-based, human; parameters: key to % inhibition 14C-gly-sar transport: NS: no significant difference between experimental (+MTLP) and control cells (−MTLP) in the transport of radiolabeled drug; conditions: flux measured over 2 h
Experimental: The effect of the MTLPs ZElan094, ZElan178 and ZElan187 (SEQ ID NOS: 2, 7 and 16) and of the targeting peptide ZElan022 (U.S. patent application Ser. Nos. 09/079,819, 09/079,723 AND 09/079,678, AND PCT APPLICATION PCT/US98/10088, PUBLISHED AS WO 98/51325) on the transport of the dipeptide ^14C-gly-sar and of the reporter molecule ^3H-fMLP across Caco-2 monolayers was determined. The Caco-2 monolayers were grown on Transwell-Snapwells. Cell viability was determined by measuring TEER of the Caco-2 monolayers during each experiment. No significant drop in TEER was measured. Cell permeability was determined by measuring mannitol flux across the Caco-2 monolayers during each experiment. No increase in mannitol flux was measured in the presence of the MTLP ZElan094.
The flux of the dipeptide ^14C-gly-sar and of the reporter molecule ^3H-fMLP across the Caco-2 monolayers in the absence and in the presence of the MTLPs ZElan094, ZElan178 and ZElan187 (SEQ ID NOS: 2, 7 and 16) and of the targeting peptide ZElan022 (U.S. patent application Ser. Nos. 09/079,819, 09/079,723 AND 09/079,678), AND PCT APPLICATION PCT/US98/10088, PUBLISHED AS WO 98/51325 was measured over 2 h, and reduction in the permeability coefficient was determined in the presence of cold substrates.

[3] = system: Caco-2 cell monolayers; experiment: Permeability of tritiated kappa peptide conjugates through differentiated Caco-2 cell monolayers; type: in vitro ADME, human; conditions: n=5
Experimental: Highest transport values were obtained in the first 30 min followed by a 2-4 fold decrease at 60 min. The significance of these findings is unclear. The data may be indicative of dual binding/uptake events occurring through i) a kappa receptor specific mechanism and ii) direct membrane interaction through lipid interaction of the membrane permeable peptide.

[4] = Systemic 3H bioavailability of kappa peptide conjugates, conscious rat model (plasma); type: in vivo, Wistar rats; conditions: intraduodenal (ID), 100 μCi; for bioavailability: rat, plasma, potency corrected, read-out: Absolute 3H bioavailability
Experimental: The possible enhancing effects of ELAN094 and ELAN207 MTLPs (SEQ ID NOs 2 and 60) on intestinal absorption of the kappa peptide were examined in a conscious rat model.
The study was non-randomised, parallel group design. Wistar rats within the 250-350 g weight range were used. All animals were fasted for a period of 16 h prior to study initiation. Water was available at all times.
Intravenous injection of 10 μCi of ^3H-kappa peptide-Kaffiralin-1 (plain kappa peptide) (tail vein injection).
Intraduodenal instillation of 100 μCi of ^3H-kappa peptide-Elan094 (Analysed). The Elan094 ligand contains a membrane translocating sequence.
Intraduodenal instillation of 100 μCi of ^3H-kappa peptide-Elan207 (Analysed). The Elan207 ligand contains a membrane translocating sequence.
Intraduodenal instillation of 100 μCi of ^3H-kappa peptide-Kaffiralin-1.
The plasma (100-250 μl) was made up to 1 ml with BTS-450 (an organic tissue solubiliser) and incubated for 1 hour. Ten ml of Scintillation fluid was added and the radioactivity was measured.
The study was a non-randomised, parallel group biostudy designed to evaluate the systemic bioavailability of tritium labelled kappa peptide conjugates after intra-duodenal instillation in the conscious rat model. Each rat only received one treatment and the plasma samples were analysed for tritium content. The calculation of AUClast, Amax, tmax, Volume of Distribution (V d) and Clearance was based on base line corrected data. The absolute bioavailability was calculated using potency corrected data.

[5] = 3H tissue distribution of kappa peptide conjugates, conscious rat model; type: in vivo, Wistar rats; conditions: ID, 100 μCi, potency corrected
Experimental: The tissue was weighed and a representative sample, (ca 0.1 g), was removed to a scintillation vial. The tissue was solubilzed with 1 ml of BTS-450 (an organic tissue solubliser). Ten ml of scintillation fluid was added and the radioactivity was measured. The radioactivity was expressed as dpm/initial weight of tissue.

[6] = Opioid peptide stability in SIF (pancreatin, pH 7.5, HPLC/LCMS); type: in vitro ADME
Experimental: Pancreatin (Fisher Scientific) was dissolved at 1 mg/ml in 1× phosphate buffer solution. The pH of the solution was adjusted to 7.5 with 0.01 M NaOH and it was heated in a waterbath to 37° C. Two dry peptide samples were weighed out. One sample was dissolved in phosphate buffer solution at 1.0 mg/ml as a control. The second sample was dissolved in SIF at 1.0 mg/ml for stability analysis. HPLC Analysis Conditions RP-HPLC analysis with C-18 short column (Betasil column, 5 μm (50×3 mm) PN: 055-701-3) with the following gradient: […]
Diode array detector on the system, 214 nm used for analysis
Solution in SIF injected at 0, 1, 3, and 24 hours
Analyzed control and 24 hour sample by LCMS.

[7] = target: T1, kappa receptor (Rattus norvegicus, UniProt P34975); experiment: Competition for binding of a radiolabelled kappa peptide to rat brain homogenates; conditions: IC50, Day 82, first of triplicates
T1 construct: from tissue; host or cells: rat brain homogenate
Experimental: The integrity of the opioid peptide was evaluated post conjugation to assess suitability for inclusion in further studies. Opioid activity was assessed in vitro using a competition assay (competition for binding of a radiolabelled kappa peptide to rat brain homogenates).

Molecule: CC(C)C[C@@H](NC(=O)[C@@H](CC(C)C)NC(=O)[C@H](NC(=O)[C@H]1CCCN1C(=O)[C@@H](CC(C)C)NC(=O)[C@@H](CC(C)C)NC(=O)[C@H](NC(=O)[C@@H](C)NC(=O)[C@@H](C)NC(=O)[C@@H](C)NC(=O)[C@@H](CCCCN)NC(=O)[C@@H](CCCCN)NC(=O)[C@H](N)CCCCNS(=O)(=O)c1cccc2c(N(C)C)cccc12)C(C)C)C(C)C)C(=O)N[C@H](C)C(=O)N[C@H](C)C(=O)N1CCC[C@@H]1C(N)=O [ZElan207]
- recovery ([1]; % Recovery, control without SIF: Pep + H2O (100 ul) + H2O, 60 min): 101%
- recovery ([1]; % Recovery, control without SIF: Pep + H2O (100 ul) + quenching solution, 60 min): 101%
- recovery ([1]; pH 6.8, % Recovery, Peptide + 100 uL SIF pH 6.8, 37 C, 5 min): 96.6%
- recovery ([1]; pH 6.8, % Recovery, Peptide + 100 uL SIF pH 6.8, 37 C, 10 min): 97.4%
- recovery ([1]; pH 6.8, % Recovery, Peptide + 100 uL SIF pH 6.8, 37 C, 30 min): 87.8%
- recovery ([1]; pH 6.8, % Recovery, Peptide + 100 uL SIF pH 6.8, 37 C, 60 min): 97.7%
- recovery ([1]; pH 6.8, % Recovery, Peptide + 200 uL SIF pH 6.8, 37 C, 5 min): 99%
- recovery ([1]; pH 6.8, % Recovery, Peptide + 200 uL SIF pH 6.8, 37 C, 10 min): 96.3%
- recovery ([1]; pH 6.8, % Recovery, Peptide + 200 uL SIF pH 6.8, 37 C, 30 min): 92.8%
- recovery ([1]; pH 6.8, % Recovery, Peptide + 200 uL SIF pH 6.8, 37 C, 60 min): 96.5%

Molecule: H-K(ε-dansyl)KKAAVLLPVLLA-NH2 ({K(ε-dansyl)}-KKAAVLLPVLLA-NH2) [ZElan187]
- % inhibition 14C-gly-sar transport [2]: NS
- inhibition of 14C-gly-sar transport [2]: did not inhibit transport

Molecule: H-K(ε-dansyl)KKCAAVLLPVLLAC-NH2 ({K(ε-dansyl)}-KKCAAVLLPVLLAC-NH2; not fully specified; printed as H-K(ε-dansyl)KKCAAVLLPVLLAC-NH2; also: cyclic internal, bridge kind and places not given here) [ZElan178]
- % inhibition 14C-gly-sar transport [2]: NS
- inhibition of 14C-gly-sar transport [2]: did not inhibit transport

Molecule: CC[C@@H](C)[C@@H](NC(=O)[C@@H](Cc1ccccc1)NC(=O)[C@@H](Cc1ccccc1)NC(=O)[C@@H](CCCCN)NC(=O)[C@H]1CCCN1C(=O)[C@@H](C)NC(=O)[C@@H](C)NC(=O)[C@@H](CC(C)C)NC(=O)[C@@H](CC(C)C)NC(=O)[C@H](NC(=O)[C@H]1CCCN1C(=O)[C@@H](CC(C)C)NC(=O)[C@@H](CC(C)C)NC(=O)[C@H](NC(=O)[C@@H](C)NC(=O)[C@@H](C)NC(=O)[C@@H](C)NC(=O)[C@@H](CCCCN)NC(=O)[C@H](N)CCCCN)C(C)C)C(C)C)C(=O)N[C@H](CCCNC(=N)N)C(N)=O [3H-Kappa peptide-Elan 207] (H-[dK][dK][dA][dA][dA][dV][dL][dL][dP][dV][dL][dL][dA][dA][dP][dK][dF][dF][dI][dR]-NH2; N-terminus and C-terminus assumed)
- permeability compared to the kappa peptide control [3]: No significant increase
- 3H AUClast ([4]; (Repeat) group): 249021.32±37503.78 dpm/ml·h
- 3H Amax (maximum radioactivity) ([4]; (Repeat) group): 201464.40±44854.19 dpm/ml
- fold increase in absolute 3H bioavailability versus kappa peptide without ligand ([4]; (Repeat) group): approx. 2 fold
- 3H AUClast ([4]; Elan207 = original group): 162743.70±13549.10 dpm/ml·h
- 3H Amax (maximum radioactivity) ([4]; Elan207 = original group): 100041.17±6274.57 dpm/ml
- fold increase in absolute 3H bioavailability versus kappa peptide without ligand ([4]; listed as Elan207 MTLP): > 1.5 fold
- bioavailability ([4]; (Repeat) group): 16.6 ± 2.5%
- bioavailability ([4]; Elan207 = original group): 11.5 ± 0.96%
- Catheter, % of administered dose [5]: 0.14 ± 0.09%
- GI Tissue, % of administered dose [5]: 4.08 ± 2.47%
- GI Washing, % of administered dose [5]: 9.60 ± 16.65%
- GI contents, % of administered dose [5]: 26.34 ± 17.00%
- Liver, % of administered dose [5]: 0.47 ± 0.20%
- Total GI (% recovery from GI tissue, GI contents & GI wash) [5]: 40.03 ± 23.23%
- Kidney, % of administered dose ([5]; t=6 h): 0.17 ± 0.07%
- Plasma, % of administered dose ([5]; t=6 h): 0.10 ± 0.01%
- Total Recovery, % of administered dose ([5]; t=6 h): 40.91 ± 23.32%
- Plasma, % of administered dose ([5]; t=6 h, listed as 3H-Kappa peptide Elan207): 0.10±0.01%

Molecule: CC[C@@H](C)[C@@H](NC(=O)[C@@H](Cc1ccccc1)NC(=O)[C@H](N)Cc1ccccc1)C(=O)N[C@H](CCCNC(=N)N)C(N)=O [H-ffir-NH2]
- stability in SIF ([6]; over the 24 hour period): very stable
- remaining at 1 h, 1 mg/ml ([6]; simulated intestinal fluid (SIF) with pancreatin, pH 7.5, SIF, 37° C., 1 hr, read-out: % Compound): 105%
- remaining at 24 h, 1 mg/ml ([6]; simulated intestinal fluid (SIF) with pancreatin, pH 7.5, SIF, 37° C., 24 hr, read-out: % Compound): 101%
- IC50 [7]: 4 nM
